Patent US6951887B2 (The Research Foundation of State University of New York, priority 1998, dated 2005)

How the values were obtained:
Hep G2 = assay: killing of cultured cells, Hep G2; assay type: cell-based; parameters: key to cells killed by treatment: “+” indicates that the cells were killed by treatment; “−” indicates that they were not; “+/−” indicates a slow marginal response seen only in a few special cases with fibroblasts experimentally transformed by introduction of the ras oncogene; conditions: Hep G2; compound at two to fourfold above its threshold killing concentration
From the text: (§1) Table 1: Summarized are the responses of cells in culture to killing by example members of the family of blocked lipoate derivatives that are the object of this invention as well as one control compound (dihydroxyoctanoic acid). At right is indicated the specific cell line followed by the tissue of origin of the cell line. Across the top are listed the specific compounds tested. Each blocked lipoate derivative was used at two to fourfold above its threshold killing concentration. [These concentrations range form 0.15 mM (60 ug/ml or 60 mg/kg) to 2.5 mM (800 ug/ml or 800 mg/kg) (see EXAMPLE 11).] […] “+/−” indicates a slow marginal response seen only in a few special cases with fibroblasts experimentally transformed by introduction of the ras oncogene (EXAMPLE 10).
(§2) First, each cell type to be tested was plated at low densities in the wells of a standard 6×24 well tissue culture plate. (Multiple wells are seeded for each cell type.)
(§3) Second, the cells were allowed to grow to moderate densities. Transformed cells are in contact and non-transformed cells are contact-inhibited under these conditions.
(§4) Third, the lipoate derivatives to be tested were added to individual wells. In these experiments each compound was added at two to fourfold above the threshold killing concentration for cancer cells (EXAMPLE 11).
(§5) Fourth, cells were monitored over the next several days.

LnCap (Prostate) = assay: killing of cultured cells, LnCap; assay type: cell-based; parameters: key: “+” indicates that the cells were killed by treatment; “−” indicates that they were not; “+/−” indicates a slow marginal response seen only in a few special cases with fibroblasts experimentally transformed by introduction of the ras oncogene; conditions: compound at two to fourfold above its threshold killing concentration
From the text: as §1, §2, §3, §4, §5

B16 (Skin) = assay: killing of cultured cells, B16; assay type: cell-based; parameters: key: “+” indicates that the cells were killed by treatment; “−” indicates that they were not; “+/−” indicates a slow marginal response seen only in a few special cases with fibroblasts experimentally transformed by introduction of the ras oncogene; conditions: compound at two to fourfold above its threshold killing concentration
From the text: as §1, §2, §3, §4, §5

SW480 (Colon) = assay: killing of cultured cells, SW480; assay type: cell-based; parameters: key: “+” indicates that the cells were killed by treatment; “−” indicates that they were not; “+/−” indicates a slow marginal response seen only in a few special cases with fibroblasts experimentally transformed by introduction of the ras oncogene; conditions: compound at two to fourfold above its threshold killing concentration
From the text: as §1, §2, §3, §4, §5

RD (Embryo) = assay: killing of cultured cells, RD; assay type: cell-based; parameters: key to cells killed by treatment: “+” indicates that the cells were killed by treatment; “−” indicates that they were not; “+/−” indicates a slow marginal response seen only in a few special cases with fibroblasts experimentally transformed by introduction of the ras oncogene; conditions: RD, Embryo; compound at two to fourfold above its threshold killing concentration
From the text: as §1, §2, §3, §4, §5

A549 (Lung) = assay: killing of cultured cells, A549; assay type: cell-based; parameters: key to cells killed by treatment: “+” indicates that the cells were killed by treatment; “−” indicates that they were not; “+/−” indicates a slow marginal response seen only in a few special cases with fibroblasts experimentally transformed by introduction of the ras oncogene; conditions: A549, Lung; compound at two to fourfold above its threshold killing concentration
From the text: as §1, §2, §3, §4, §5

Saos 2 (Bone) = assay: killing of cultured cells, Saos 2; assay type: cell-based; parameters: key: “+” indicates that the cells were killed by treatment; “−” indicates that they were not; “+/−” indicates a slow marginal response seen only in a few special cases with fibroblasts experimentally transformed by introduction of the ras oncogene; conditions: compound at two to fourfold above its threshold killing concentration
From the text: as §1, §2, §3, §4, §5

MCF 7 (Breast) = assay: killing of cultured cells, MCF 7; assay type: cell-based; parameters: key: “+” indicates that the cells were killed by treatment; “−” indicates that they were not; “+/−” indicates a slow marginal response seen only in a few special cases with fibroblasts experimentally transformed by introduction of the ras oncogene; conditions: compound at two to fourfold above its threshold killing concentration
From the text: as §1, §2, §3, §4, §5

HeLa (Cervix) = assay: killing of cultured cells, HeLa; assay type: cell-based; parameters: key to cells killed by treatment: “+” indicates that the cells were killed by treatment; “−” indicates that they were not; “+/−” indicates a slow marginal response seen only in a few special cases with fibroblasts experimentally transformed by introduction of the ras oncogene; conditions: Cervix, compound at two to fourfold above its threshold killing concentration
From the text: as §1, §2, §3, §4, §5

HeLa cells = assay: killing of HeLa cells with or without dichloroacetate (DCA); assay type: cell-based; conditions: compound ca. twofold above threshold killing dose plus 5 mM DCA
Method: HeLa cells were plated at moderate densities and allowed to attach and grow for ca. 24 hours in a series of wells in a multi-well tissue culture plate. To individual wells of the first subset (control) were added bis-acetyl lipoate, mono-acetyl lipoate or bis-benzoyl lipoate—each at ca. twofold above the threshold killing dose (EXAMPLE 11). To an equivalent (experimental) subset of wells were added these same compounds at the same dose together with the simultaneous addition of DCA to 5 mM final concentration.

NIH 3T3 ras transformed = assay: killing of cultured cells, ras-transformed NIH 3T3 (T24); assay type: cell-based; parameters: key to cells killed by treatment: “+” indicates that the cells were killed by treatment; “−” indicates that they were not; “+/−” indicates a slow marginal response seen only in a few special cases with fibroblasts experimentally transformed by introduction of the ras oncogene; conditions: NIH 3T3 ras transformed; compound at two to fourfold above its threshold killing concentration
From the text: as §1, §2, §3, §4, §5
NIH-3T3 cells are relatively normal, noncancerous cells. However, if an activated allele of the ras oncogene is introduced into these cells they become highly malignant (cancerous) as assessed by several assays (REFERENCE).

[1] = nonspecific toxicity by intraperitoneal injection; conditions: C57/BL, mouse, in vivo, ip
Method: (§6) (All studies described in this section were carried out by intraperitoneal (IP) injection into C57/BL mice.)

C57/BL mice = assay: nonspecific toxicity by intraperitoneal injection; conditions: mouse, in vivo, ip
Method: as §6

cancer cells in culture = assay: threshold killing concentration and dose response in cultured cells; assay type: cell-based; conditions: for threshold killing concentration: approximate center of a range extending two to threefold
From the text: First, each compound killed cancer cells in culture at or above a relatively narrow, specific concentration range, but not below. The threshold concentrations given below represent the approximate center of this range which extended roughly two to threefold. […] Below these saturation ranges, sensitive cells survived and grew. They could be removed and replated to grow, apparently indefinitely, under these conditions. […] This was a highly unusual dose/response profile. The threshold killing concentrations (ranges) varied between individual compounds. Examples of these threshold killing concentrations were as follows: bis-benzoyl lipoate (EXAMPLE 3) 60 mg/liter (60 mg/kg), monoacetyl lipoate (EXAMPLE 4) 100 mg/liter (100 mg/kg); bis-acetyl lipoate (EXAMPLE 2) 600 mg/liter (600 mg/kg).
These changes were ultimately followed by cell death if treatment was continued. However, these morphological changes were reversed, and the cells recovered, if the lipoate derivative was removed during this initial exposure. As with the dose/response profile of the preceeding paragraph, this reversible induction of morphological change followed by commitment to cell death is highly idiosyncratic. The discovery that this behavior was shown by all tested members of the class of compounds that are the object of this invention was, again, very strong evidence that these compounds are, in fact, a functionally coherent class.

B-16 melanoma = assay: B-16 system, subcutaneous tumors; assay type: in vivo, mouse; conditions: 100 mg/kg twice daily, started at tumors ca. 3-5 mm
From the text: The B-16 melanoma strain was introduced either subcutaneously or intraperitoneally into individuals of the C57/BL syngeneic mouse strain (7). When left untreated such mice develop massive tumors in the immediate area of injection as well as secondary metastases throughout the animal—including in the liver and the lungs. These malignant growths result in the early death of the animals. Moreover, the resulting malignant growths are made up of darkly pigmented malignant melanocytes—making their assessment convenient and highly reliable. We will henceforth refer to this as the “B-16 system”.
Second, a group of animals were injected at a subcutaneous site with B-16 cells. […] As this time, one group oL animals (experimentals) began a twice-daily series of injections of the bis-acetyl lipoate derivative (100 mg/kg in 100 ul of isotonic saline) and a second set (controls) of corresponding injections of the saline solvent alone. [See EXAMPLES 2, 8 and 11 for the details of bis-acetyl lipoate derivative.]
Third, in several animals subcutaneous tumors were produced as in the preceding paragraph. After the tumors had grown to visible, palpable size, these animals received both a twice daily IP (systemic) dose of 50 mg/kg of bis-benzoyl lipoate as well as a twice daily direct injection a second dose of the same volume directly into the tumor mass.

SMILES	cells killed by treatment (Hep G2)	cells killed by treatment (LnCap (Prostate))	cells killed by treatment (B16 (Skin))	cells killed by treatment (SW480 (Colon))	cells killed by treatment (RD (Embryo))	cells killed by treatment (A549 (Lung))	cells killed by treatment (Saos 2 (Bone))	cells killed by treatment (MCF 7 (Breast))	cells killed by treatment (HeLa (Cervix))	speed of cell killing with DCA relative to compound alone (HeLa cells)	cells killed by treatment (NIH 3T3 ras transformed)	LD50 [1]	maximum well-tolerated dose (C57/BL mice)	threshold killing concentration (cancer cells in culture)	response of subcutaneous tumor (B-16 melanoma)	effect on cells in culture (cancer cells in culture; tested up to 5 mM (3200 ug/ml), cell lines of Table 1)
NC(=O)CSCCC(CCCCC(=O)O)SCC(N)=O (centres unmarked) [bis carbamoyl lipoate, 6,8-Biscarbamoylmethylmercaptooctanoic acid]	+															
CN1C(=O)CC(SCCC(CCCCC(=O)O)SC2CC(=O)N(C)C2=O)C1=O (stereo not drawn) [bis methyl sucimimido lipoate, 6,8-Bis-[S-(N-methylsuccinimido)]mercaptooctanoic acid]	+	+	+	+	+	+	+	+	+							
CC(=O)SCCC(CCCCC(=O)O)SC(C)=O (centres unmarked) [bis-acetyl lipoate, 6,8-bisacetylmercaptooctanoic acid]	+	+	+	+	+	+	+	+	+	approximately twvice as rapidly	+/−	~500 mg/kg	ca. 200 mg/kg	600 mg/L	palpable softening and apparently partial liquification of the tumor mass followed by a stabilization or a reduction in size	
O=C([O-])CCCCC(O)CCO.[Na+] (centres unmarked) [dihydroxy octanoic acid, Sodium 6,8-Dihydroxyoctanoate, reference compound]																without detectable effect
CC(=O)SCCC(S)CCCCC(=O)O (centres unmarked) [monoacetyl lipoate, 8-acetylmercapto-6-mercaptooctanoic acid]	+	+	+	+	+	+	+	+	+	approximately twvice as rapidly	+			100 mg/L		
